Data on four molecules can be found in patent US20240335442A1 (Eurofarma Laboratórios S.A., priority 2021, published 2024).

Test [1] deals with human sodium channel Nav 1.8 (Homo sapiens (Human), UniProt Q9Y5Y9). The test can be described thus: Automated whole-cell voltage-clamp (ScreenPatch 384P), Nav 1.8 sodium current, Protocol 1. It counts as cell-based. To be noted: Protocol 1 (holding voltage -90 mV, 0.1 Hz); CHO cells expressing human Nav 1.8; room temperature; read-out: Nav1.8 IC50. The procedure:
(§1) Biological assays were performed on Chinese hamster ovary (CHO) cells expressing the human sodium channels Nav 1.8 and Nav 1.7 stably.
(§2) The experimental voltage-clamp protocol using the whole cell configuration was established on the automated ScreenPatch® 384P platform (SP384PE, Nanion Technologies, Livingston, NJ) and recording of the results was performed with a Nanion 384-well Patch Clamp chip (NPC) (Nanion Technologies, Livingston, NJ).
(§3) Compounds of Formula (I), were diluted in eight concentrations in the extracellular solution composed of physiological saline, buffered with HEPES (mM): NaCl, 137; KCl, 4; CaCl2, 3.8; MgCl2, 1; HEPES, 10; Glucose, 10; pH 7.4. The […], 50; CsF, 90; MgCl2, 5; EGTA, 5; HEPES, 10; pH 7.2. The duration of exposure of each compound with the cells expressing Nav 1.7 or Nav 1.8 was at least five minutes and the assays were performed at room temperature.
(§4) The measurements of the sodium currents of Nav 1.8 and Nav 1.7 were obtained using the voltage protocols described below: • Protocol 1: A holding voltage of-90 mV was established followed by a voltage phase of 200 ms to-120 mV, followed by a voltage step of 10 mV for 1 second for Nav 1.8 or 0 mV for Nav 1.7, followed by a step of-100 mV for 20 ms, followed by a step of 20 ms for 10 mV for Nav 1.8 or 0 mV for Nav 1.7 (TP1A) before returning to the holding voltage of-90 mV. • Protocol 2: A holding voltage of-100 mV was established followed by an inactivation voltage step at −40 mV for 8 seconds, followed by a −100 mV step for 20 ms, followed by a 20 ms step for 10 mV for Nav 1.8 or 0 mV for Nav 1.7 (TP1A) before returning to the holding voltage of-100 mV.
(§5) Protocols were repeated at a frequency of 0.1 Hz (Protocol 1) or 0.05 Hz (Protocol 2) and current amplitude was quantified over the TP1A phase log. The variation in the peak amplitude of the current was evaluated according to the Formula described below, after exposure of the cells expressing the channels, at each concentration of the different compounds:
(§6) where ITP1A,basal, and ITP1A,molecule represent the entry peaks of sodium currents into TP1A prior to exposure to the compound and in the presence of the compound, respectively.
(§7) The decrease in peak current amplitude, after exposure of the cells to the compounds, was used to calculate the percent relative blocking of the channels relative to the positive control according to the Formula below: […]
(§8) where % V and % CP represent the averages of the values of current inhibition with a vehicle (DMSO) and positive controls, respectively. The sodium currents of the positive control were considered as 100%.
(§9) where [Test] represents the concentration of the evaluated molecule, IC50 is the concentration of the compound that generates half of the maximum inhibition, N is the Hill's coefficient and % Block′ is the percentage of the sodium channel current (Nav 1.8 and Nav 1.7) inhibited at each concentration of the evaluated molecule. Data were obtained by non linear least squares regression with XL fit for Excel (Microsoft, Redmond, WA).
(§10) Compounds were tested in at least one assay to obtain the IC50 value.

The target in test [2] is human sodium channel Nav 1.7 (Homo sapiens (Human), UniProt Q15858). Kind of test: Automated whole-cell voltage-clamp (ScreenPatch 384P), Nav 1.7 sodium current, Protocol 1. It counts as cell-based. The following applies: Protocol 1 (holding voltage -90 mV, 0.1 Hz); CHO cells expressing human Nav 1.7; room temperature; read-out: Nav1.7 IC50. As for the experimental part:
as §1, §2, §3, §4, §5, §6, §7, §8, §9, §10

Some results are limits rather than exact numbers.

Chain of human sodium channel Nav 1.7 (Q15858 whole entry): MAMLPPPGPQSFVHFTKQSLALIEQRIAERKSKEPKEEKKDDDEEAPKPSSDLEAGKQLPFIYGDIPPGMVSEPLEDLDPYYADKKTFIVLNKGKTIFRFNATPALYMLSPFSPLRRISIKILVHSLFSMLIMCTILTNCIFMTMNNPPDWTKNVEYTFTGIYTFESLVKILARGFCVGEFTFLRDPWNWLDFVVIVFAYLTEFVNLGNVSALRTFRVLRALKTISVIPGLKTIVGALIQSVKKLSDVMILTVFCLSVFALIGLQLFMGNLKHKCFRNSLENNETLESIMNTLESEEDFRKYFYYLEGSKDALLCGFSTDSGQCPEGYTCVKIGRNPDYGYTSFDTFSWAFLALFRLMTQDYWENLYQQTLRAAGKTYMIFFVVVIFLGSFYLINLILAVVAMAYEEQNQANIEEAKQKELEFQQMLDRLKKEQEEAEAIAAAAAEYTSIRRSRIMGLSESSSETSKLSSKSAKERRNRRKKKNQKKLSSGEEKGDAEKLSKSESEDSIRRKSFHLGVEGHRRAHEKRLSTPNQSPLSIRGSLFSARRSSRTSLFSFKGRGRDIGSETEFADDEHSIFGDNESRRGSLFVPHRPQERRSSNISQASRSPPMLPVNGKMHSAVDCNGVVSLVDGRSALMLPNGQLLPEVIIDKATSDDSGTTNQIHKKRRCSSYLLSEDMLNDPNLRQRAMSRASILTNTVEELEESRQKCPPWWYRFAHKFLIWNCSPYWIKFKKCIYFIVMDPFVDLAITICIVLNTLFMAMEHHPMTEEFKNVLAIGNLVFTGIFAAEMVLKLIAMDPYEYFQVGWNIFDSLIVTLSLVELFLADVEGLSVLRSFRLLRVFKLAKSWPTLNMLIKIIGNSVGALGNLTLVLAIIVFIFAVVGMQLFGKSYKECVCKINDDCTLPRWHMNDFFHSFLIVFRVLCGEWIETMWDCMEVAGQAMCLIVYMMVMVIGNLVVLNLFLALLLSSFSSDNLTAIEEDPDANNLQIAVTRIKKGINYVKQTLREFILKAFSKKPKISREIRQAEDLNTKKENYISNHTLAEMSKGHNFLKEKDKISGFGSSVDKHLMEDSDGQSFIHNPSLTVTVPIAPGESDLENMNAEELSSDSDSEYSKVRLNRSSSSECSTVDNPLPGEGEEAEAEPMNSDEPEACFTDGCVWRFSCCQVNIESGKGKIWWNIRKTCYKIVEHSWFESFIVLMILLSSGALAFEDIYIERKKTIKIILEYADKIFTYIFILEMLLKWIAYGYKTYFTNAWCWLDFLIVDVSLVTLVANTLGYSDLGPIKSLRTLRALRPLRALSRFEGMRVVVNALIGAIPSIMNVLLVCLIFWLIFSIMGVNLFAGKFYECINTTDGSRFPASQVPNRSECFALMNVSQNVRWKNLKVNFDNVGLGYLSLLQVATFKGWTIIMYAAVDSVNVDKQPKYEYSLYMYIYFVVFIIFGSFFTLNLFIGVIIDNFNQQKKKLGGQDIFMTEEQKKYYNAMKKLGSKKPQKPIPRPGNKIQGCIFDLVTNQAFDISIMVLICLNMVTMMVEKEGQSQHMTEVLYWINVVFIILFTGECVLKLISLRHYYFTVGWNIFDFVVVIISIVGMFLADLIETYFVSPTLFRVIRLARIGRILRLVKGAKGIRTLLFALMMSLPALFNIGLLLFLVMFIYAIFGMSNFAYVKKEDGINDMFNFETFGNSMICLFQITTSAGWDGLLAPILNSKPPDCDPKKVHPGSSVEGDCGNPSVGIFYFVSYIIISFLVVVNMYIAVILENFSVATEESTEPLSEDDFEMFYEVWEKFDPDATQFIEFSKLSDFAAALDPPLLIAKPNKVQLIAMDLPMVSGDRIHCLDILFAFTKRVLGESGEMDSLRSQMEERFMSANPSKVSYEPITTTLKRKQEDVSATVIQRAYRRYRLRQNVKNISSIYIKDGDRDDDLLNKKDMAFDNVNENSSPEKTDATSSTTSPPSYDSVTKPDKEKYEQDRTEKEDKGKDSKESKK
Chain of human sodium channel Nav 1.8 (Q9Y5Y9 whole entry): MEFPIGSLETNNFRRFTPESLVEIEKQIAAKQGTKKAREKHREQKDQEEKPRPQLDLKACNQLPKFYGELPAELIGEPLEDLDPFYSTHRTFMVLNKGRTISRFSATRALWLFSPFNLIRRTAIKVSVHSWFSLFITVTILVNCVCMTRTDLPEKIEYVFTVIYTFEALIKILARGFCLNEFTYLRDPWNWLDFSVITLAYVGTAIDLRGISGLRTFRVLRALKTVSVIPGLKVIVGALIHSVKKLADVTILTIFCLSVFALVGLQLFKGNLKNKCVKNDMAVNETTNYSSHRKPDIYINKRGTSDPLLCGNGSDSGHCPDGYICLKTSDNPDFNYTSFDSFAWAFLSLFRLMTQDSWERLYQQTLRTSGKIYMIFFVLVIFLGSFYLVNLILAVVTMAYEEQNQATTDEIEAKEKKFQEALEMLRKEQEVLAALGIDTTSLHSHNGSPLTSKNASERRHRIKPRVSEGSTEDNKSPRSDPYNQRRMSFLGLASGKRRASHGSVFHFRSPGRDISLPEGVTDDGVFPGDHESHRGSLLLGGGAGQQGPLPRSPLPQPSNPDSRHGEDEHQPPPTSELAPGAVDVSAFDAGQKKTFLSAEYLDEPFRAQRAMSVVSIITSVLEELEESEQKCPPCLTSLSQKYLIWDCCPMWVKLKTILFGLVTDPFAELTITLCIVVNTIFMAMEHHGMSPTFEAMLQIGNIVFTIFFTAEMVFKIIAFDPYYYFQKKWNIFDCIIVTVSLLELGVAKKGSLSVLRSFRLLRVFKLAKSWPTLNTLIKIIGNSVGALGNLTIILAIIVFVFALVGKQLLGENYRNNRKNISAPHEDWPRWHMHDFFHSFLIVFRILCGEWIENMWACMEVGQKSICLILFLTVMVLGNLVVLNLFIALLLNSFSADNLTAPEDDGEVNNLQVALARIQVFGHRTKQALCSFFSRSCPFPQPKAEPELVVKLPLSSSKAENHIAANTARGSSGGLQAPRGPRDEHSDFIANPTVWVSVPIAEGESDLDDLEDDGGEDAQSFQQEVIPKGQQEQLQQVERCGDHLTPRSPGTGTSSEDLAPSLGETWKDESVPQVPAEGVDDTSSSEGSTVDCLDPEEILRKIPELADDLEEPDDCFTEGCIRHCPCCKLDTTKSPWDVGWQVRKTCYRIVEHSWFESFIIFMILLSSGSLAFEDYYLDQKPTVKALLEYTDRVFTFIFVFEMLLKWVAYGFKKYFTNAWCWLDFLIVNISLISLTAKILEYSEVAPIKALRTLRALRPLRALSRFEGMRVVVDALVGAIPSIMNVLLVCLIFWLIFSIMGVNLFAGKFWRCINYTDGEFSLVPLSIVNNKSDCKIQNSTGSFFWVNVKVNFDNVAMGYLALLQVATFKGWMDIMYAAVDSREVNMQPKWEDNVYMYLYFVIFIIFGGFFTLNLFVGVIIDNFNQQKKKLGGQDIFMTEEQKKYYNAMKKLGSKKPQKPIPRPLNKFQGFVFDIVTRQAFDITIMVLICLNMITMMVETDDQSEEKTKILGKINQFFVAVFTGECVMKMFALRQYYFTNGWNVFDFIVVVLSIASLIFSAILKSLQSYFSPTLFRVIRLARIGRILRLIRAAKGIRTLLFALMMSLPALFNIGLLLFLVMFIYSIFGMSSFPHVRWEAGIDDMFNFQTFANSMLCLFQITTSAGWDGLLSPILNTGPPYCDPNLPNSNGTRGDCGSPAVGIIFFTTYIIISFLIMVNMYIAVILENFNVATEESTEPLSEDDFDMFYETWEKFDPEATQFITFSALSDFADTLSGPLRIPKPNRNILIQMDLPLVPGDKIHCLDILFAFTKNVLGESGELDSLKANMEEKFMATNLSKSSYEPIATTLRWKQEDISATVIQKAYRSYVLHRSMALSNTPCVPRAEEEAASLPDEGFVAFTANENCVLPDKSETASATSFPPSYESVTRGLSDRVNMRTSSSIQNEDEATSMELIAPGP

What is called IC50 is the point on the concentration scale where inhibition reaches its midpoint. For `CCOc1ccc(-c2cncc(C(=O)N/N=C/c3ccncc3)n2)cc1` [Compound 24, (E)-6-(4-ethoxyphenyl)-N′-(pyridin-4-ylmethylene)pyrazine-2-carbohydrazide], the IC50 in test [1] was 8.09 µM; in test [2] it was > 10 µM.
The matching figures for `CCOc1ccc(-c2cncc(C(=O)N/N=C/c3ccccn3)n2)cc1` [Compound 25, (E)-6-(4-ethoxyphenyl)-N′-(pyridin-2-ylmethylene)pyrazine-2-carbohydrazide]: > 10 µM and > 10 µM.
In the case of `CCOc1ccc(-c2cncc(C(=O)N/N=C/c3ccc(OC)c(OC)c3)n2)cc1` [Compound 28, (E)-N′-(3,4-dimethoxybenzylidene)-6-(4-ethoxyphenyl)pyrazine-2-carbohydrazide], the results for the IC50 in test [1] and in test [2] were 2.37 µM and 1.41 µM, respectively.
As to `CCOc1ccc(-c2cncc(C(=O)N/N=C(\C)c3cc(OC)cc(OC)c3)n2)cc1` [Compound 166, (E)-N′-(1-(3,5-dimethoxyphenyl)ethylidene)-6-(4-ethoxyphenyl)pyrazine-2-carbohydrazide], the IC50 in test [1] stood at 9.18 µM; in test [2] it was 6.36 µM.
